Assay results from patent US20260035360A1, “INHIBITORS OF MYC AND USES THEREOF” (Northwestern University, priority 2022, published 2026).

Assays:
PC3 cells = assay: PC3 cell viability, CellTitreGlo Assay, 72 hrs; assay type: cell-based; conditions: Homo sapiens, PC-3
Summary of the method: (§1)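 For viability IC50, PC3 and PC12 cells were exposed to a compound concentration range for 72 hrs and read by CellTitreGlo. MYC and ATF4 were measured in PC3 cells after 24 hr treatment by western blot, normalised to Actin and quantified by imager.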

PC12 cells = assay: PC12 cell viability, CellTitreGlo Assay, 72 hrs; assay type: cell-based; conditions: Rattus norvegicus, PC-12
Protocol: Table 2. Biological data of selected compounds. For IC50 determination. PC3 and PC12 cells were treated with increasing concentrations of the indicated compounds for 72 hrs and cell viability assessed using CellTitreGlo Assay (Promega). For MYC and ATF4 protein level determination. PC3 cells were treated with the indicated compounds for 24 hr sand cell lysates processed for western blot with MYC and ATF4 antibodies using Actin as a control. Quantification analyses were performed by Biorad ChemiDoc Imager and Bio-Rad Image Lab software.

[1] = Toxicity (weight loss) in tumor-bearing mice; assay type: in vivo; conditions: weight loss class
Protocol: (§2) Table 3. Biological data of selected compounds. […] Tumor growth inhibition (TGI) was determined after 14 d.

MycCaP;Pten-KO cells = assay: Tumor growth inhibition, MycCaP;Pten-KO subcutaneous allograft in male FVB/N mice; assay type: in vivo; conditions: after 14 d; for Efficacy MycCaP;Pten-ko (TGI @ 100 mg/kg/d po): male FVB/N mice, Table 3; for TGI: QD, Table 7
Protocol: as §2
Table 7. Tumor Growth Inhibition data. […] Tumor growth inhibition (TOD was determined after 14 d.

[2] = female, mouse, in vivo, po, 1 mg/kg
Protocol: (§3) PK: Plasma levels of compounds were determined after 1 mg/kg dosing PO in female BALB/C mice.
(§4) Plasma levels of compounds were determined after 1 mg/kg dosing PO in female BALB/C mice.

MYC = molecular target: T1, MYC (Homo sapiens, UniProt P01106); assay: MYC protein level in PC3 cells by western blot, 24 hr; assay type: cell-based; conditions: PC-3, 24 h, PC3, 24 h, Actin control, read-out: Relative MYC protein at 10 μM (%, PC3 24 h)
T1 construct: endogenous in cells; host or cells: PC3 cells
Summary of the method: as §1

ATF4 = ATF4 protein level in PC3 cells by western blot, 24 hr; assay type: cell-based; conditions: Homo sapiens, PC-3, PC3, 24 h, Actin control, read-out: Relative ATF4 protein at 10 μM (fold change, PC3 24 h)
Summary of the method: as §1

[3] = Plasma pharmacokinetics after 1 mg/kg PO in female mice; conditions: mouse
Protocol: as §3, §4

T1 sequence (P01106 whole entry): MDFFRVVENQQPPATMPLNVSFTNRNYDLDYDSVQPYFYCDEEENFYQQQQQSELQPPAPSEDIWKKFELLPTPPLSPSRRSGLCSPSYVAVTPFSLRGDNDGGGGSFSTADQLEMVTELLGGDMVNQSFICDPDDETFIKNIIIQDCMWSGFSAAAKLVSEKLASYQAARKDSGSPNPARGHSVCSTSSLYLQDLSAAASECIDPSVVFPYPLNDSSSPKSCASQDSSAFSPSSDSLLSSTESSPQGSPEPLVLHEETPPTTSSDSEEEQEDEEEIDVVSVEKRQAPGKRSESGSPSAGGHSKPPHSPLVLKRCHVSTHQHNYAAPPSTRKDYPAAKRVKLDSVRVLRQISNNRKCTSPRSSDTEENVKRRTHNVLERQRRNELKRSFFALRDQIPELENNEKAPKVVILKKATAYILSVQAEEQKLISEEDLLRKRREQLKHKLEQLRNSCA

| SMILES | IC50 (PC3 cells) [nM] | IC50 (PC12 cells) [nM] | Toxicity @ 100 mg/kg/d [1] | Efficacy MycCaP;Pten-ko (TGI @ 100 mg/kg/d po) (MycCaP;Pten-KO cells) | AUMC0-t [2] [h*h*ng/mL] | remaining activity at 10 µM (MYC) [%] | fold induction at 10 µM (ATF4) | AUC(0-t) [3] [ng·h/mL] | Cmax [3] [ng/mL] | Tmax [3] [h] | TGI (MycCaP;Pten-KO cells; 10 mg/kg p.o.) [%] | TGI (MycCaP;Pten-KO cells; 30 mg/kg p.o.) [%] | TGI (MycCaP;Pten-KO cells; 100 mg/kg p.o.) [%] |
| --- | --- | --- | --- | --- | --- | --- | --- | --- | --- | --- | --- | --- | --- |
| Cn1nc(C(F)(F)F)cc1-c1ccc(OCc2ccc(Cl)cc2)c(-c2ccc(Cl)c(C(F)(F)F)c2)c1O [MYCi975, reference compound] | 2900 ± 500 | > 16000 | − (−, 0-5% weight loss) | 50 | – | – | – | – | – | – | – | – | – |
| Cn1nc(C(F)(F)F)cc1-c1cc(Cl)c(COc2ccc(Cl)cc2)c(-c2ccc(Cl)c(C(F)(F)F)c2)c1O [NUCC-0226605] | 1000 | 10500 | ++ (++, 15-20% weight loss) | 90 | 49995 | 34.7 ± 3.2 | 10.3 ± 1.5 | 4830 | 274 | 8 | 56.29 | 65.67 | 92.51 |
